Legend:
Liver microsomes = test: Clearance in human liver microsomes; format: ADME, Microsome
[1] = Cmax in rat at 10 mg/kg, po; format: ADME, organism-based; set-up: dose 10 mg/kg, route oral; conditions: in vivo
[2] = Plasma concentration in rat at 10 mg/kg, po after 4 hrs; format: ADME, organism-based; set-up: dose 10 mg/kg, route oral
Rattus norvegicus = test: AUC (0 to 4 hrs) in rat at 10 mg/kg, po; format: ADME, organism-based, Plasma; set-up: time < 4 hr, dose 10 mg/kg, route oral; conditions: in vivo

SMILES | CL (Liver microsomes) [nmol/min/mg] | Cmax [1] [ng/mL] | concentration at 4 h [2] [ng/mL] | AUC (Rattus norvegicus) [ng·h/mL]
Cc1ccc(C(=O)NC2CC2)cc1Nc1ncnn2cc(C(=O)c3ccccc3)c(C)c12 | 0.08 | 752 | 550 | 2300
COC(=O)NC(=O)c1ccc(C)c(Nc2ncnn3cc(C(=O)c4ccccc4)c(C)c23)c1 | 0.16 | – | – | –

From ChEMBL document CHEMBL1806462, “Discovery of pyrrolo[2,1-f][1,2,4]triazine C6-ketones as potent, orally active p38α MAP kinase inhibitors” (Bioorg Med Chem Lett, 2011)
